The target in data set [1] is T1, Prostaglandin G/H synthase 2 (Homo sapiens, UniProt P35354).
T1 sequence (P35354 whole entry): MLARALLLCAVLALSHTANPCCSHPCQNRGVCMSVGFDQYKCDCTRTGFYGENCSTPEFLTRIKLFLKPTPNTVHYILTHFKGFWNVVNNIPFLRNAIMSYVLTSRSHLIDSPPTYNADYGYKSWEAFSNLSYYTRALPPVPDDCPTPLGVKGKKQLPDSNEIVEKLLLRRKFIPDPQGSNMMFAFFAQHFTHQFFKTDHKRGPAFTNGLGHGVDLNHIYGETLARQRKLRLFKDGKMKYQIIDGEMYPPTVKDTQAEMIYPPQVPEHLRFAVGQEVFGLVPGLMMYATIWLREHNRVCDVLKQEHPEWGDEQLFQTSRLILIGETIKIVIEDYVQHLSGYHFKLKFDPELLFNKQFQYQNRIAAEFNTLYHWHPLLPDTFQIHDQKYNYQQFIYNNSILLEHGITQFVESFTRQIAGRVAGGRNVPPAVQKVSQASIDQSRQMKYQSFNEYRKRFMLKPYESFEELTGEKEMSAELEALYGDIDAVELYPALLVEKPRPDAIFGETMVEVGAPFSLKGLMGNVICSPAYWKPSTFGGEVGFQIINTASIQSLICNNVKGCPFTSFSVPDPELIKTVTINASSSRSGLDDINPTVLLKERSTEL
In words: Inhibitory concentration against human whole blood Prostaglandin G/H synthase 2 enzyme activity was determined.

Data set [2] can be described thus: In vitro inhibitory concentration against Prostaglandin G/H synthase 1 enzyme activity.
For data set [3], the target named is T2, Prostaglandin G/H synthase 1 (Homo sapiens, UniProt P23219). In words: Inhibitory concentration against human whole blood Prostaglandin G/H synthase 1 enzyme activity.
T2 sequence (P23219 whole entry): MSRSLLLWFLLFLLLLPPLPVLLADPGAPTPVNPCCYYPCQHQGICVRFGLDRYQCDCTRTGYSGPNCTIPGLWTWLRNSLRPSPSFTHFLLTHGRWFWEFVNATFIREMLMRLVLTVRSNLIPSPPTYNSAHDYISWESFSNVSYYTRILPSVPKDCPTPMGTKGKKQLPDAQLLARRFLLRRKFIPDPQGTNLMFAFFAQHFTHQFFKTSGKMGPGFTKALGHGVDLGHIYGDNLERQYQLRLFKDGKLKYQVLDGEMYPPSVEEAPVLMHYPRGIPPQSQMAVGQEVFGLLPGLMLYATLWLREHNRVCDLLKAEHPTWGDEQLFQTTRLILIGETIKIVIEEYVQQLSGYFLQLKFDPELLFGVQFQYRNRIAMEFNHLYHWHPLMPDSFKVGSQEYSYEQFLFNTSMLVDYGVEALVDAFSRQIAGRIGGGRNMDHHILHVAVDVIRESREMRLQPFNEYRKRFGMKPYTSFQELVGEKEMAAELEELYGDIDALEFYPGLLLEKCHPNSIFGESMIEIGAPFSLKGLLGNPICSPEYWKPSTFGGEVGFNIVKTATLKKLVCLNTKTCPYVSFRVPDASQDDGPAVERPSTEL
Data set [4] concerns the target T1, Prostaglandin G/H synthase 2. In words: In vitro inhibitory concentration against Prostaglandin G/H synthase 2 enzyme activity.
A short description of data set [5]: In vitro inhibitory concentration against Prostaglandin G/H synthase 1.
Data set [6] deals with T2, Prostaglandin G/H synthase 1. In words: Inhibitory concentration against human whole blood Prostaglandin G/H synthase 1.
Data set [7] in a line: Area under curve plasma concentration of compound in rat when administered perorally at 10 mg/kg dose. The class given is ADME, organism-based. Also on record: dose 10 mg/kg, route oral. Conditions: in vivo, po.
A short description of data set [8]: Plasma half life of compound was determined in rat. The class given is ADME.

This note sets out measurements from ChEMBL document CHEMBL1137849, “Rational design of 6-methylsulfonylindoles as selective cyclooxygenase-2 inhibitors” (Bioorg Med Chem Lett, 2004).

Bounds are passed on as bounds.

For the compound `Cc1[nH]c2cc(S(C)(=O)=O)ccc2c1Oc1ccc(F)cc1F`, the half-maximal inhibitory concentration (IC50) in data set [1] is 4.1 µM; in data set [2], 39.5 µM; in data set [3], 33 µM; in data set [4], 0.11 µM.
Consider `Cc1[nH]c2cc(S(C)(=O)=O)ccc2c1S(=O)(=O)c1ccc(F)cc1`, for which the half-maximal inhibitory concentration (IC50) in data set [4] was > 40 µM.
As for `COC(=O)c1[nH]c2cc(S(C)(=O)=O)ccc2c1Sc1ccc(F)cc1`, the IC50 in data set [1] came to 1.1 µM; in data set [3], 9.3 µM; in data set [4], 0.8 µM.
For `Cc1[nH]c2cc(S(C)(=O)=O)ccc2c1Sc1ccc(F)cc1`, the IC50 in data set [1] was 2.2 µM; in data set [2], > 40 µM; in data set [3] it was 55.7 µM; in data set [4] it was 0.02 µM.
Take `Cc1[nH]c2cc(S(C)(=O)=O)ccc2c1Sc1ccccn1`: the half-maximal inhibitory concentration (IC50) turned out to be 5.2 µM in data set [1], 30 µM in data set [3] and 1.78 µM in data set [4].
On to `Cc1[nH]c2cc(S(C)(=O)=O)ccc2c1Oc1ccc(Cl)cc1Cl`, for which the IC50 was 4.1 µM in data set [1], 25.8 µM in data set [2], 33 µM in data set [3] and 0.11 µM in data set [4].
For `Cc1[nH]c2cc(S(C)(=O)=O)ccc2c1Cc1ccccc1Cl`, the half-inhibitory concentration (IC50) is 5.5 µM in data set [1], 118 µM in data set [3], 0.07 µM in data set [4] and > 40 µM in data set [5].
For `COc1ccc(Sc2c(C)[nH]c3cc(S(C)(=O)=O)ccc23)cc1`, the 50% inhibitory concentration (IC50) was determined as 4.8 µM in data set [1], 9 µM in data set [2], 18 µM in data set [3] and 0.47 µM in data set [4].
Take `Cc1[nH]c2cc(S(C)(=O)=O)ccc2c1Cc1ccc(F)cc1`: the IC50 in data set [1] is 11.3 µM; in data set [2], > 40 µM; in data set [3], 63.9 µM; in data set [4] it was 0.08 µM.
`COc1ccc(Sc2c(C#N)[nH]c3cc(S(C)(=O)=O)ccc23)c(Cl)c1`: the figures for the IC50 in data set [1], in data set [3] and in data set [4] were 1.09 µM, 8.1 µM and 0.33 µM, respectively.
Take `Cc1[nH]c2cc(S(C)(=O)=O)ccc2c1Oc1ccc(F)cc1`: the concentration for half-maximal inhibition (IC50) in data set [1] was 2 µM; in data set [6], 37 µM; in data set [2] it was > 40 µM; in data set [4] it was 0.03 µM. The compound also showed an AUC in data set [7] of 35 µM·h. The compound further had a half-life in data set [8] of 6.2 h.
For the compound `COc1ccc(Cc2c(C)[nH]c3cc(S(C)(=O)=O)ccc23)cc1`, the IC50 in data set [1] is 5.1 µM; in data set [2], > 45 µM; in data set [3], 7.3 µM; in data set [4], 0.27 µM.
For `Cc1[nH]c2cc(S(C)(=O)=O)ccc2c1Oc1ccc(Cl)cc1`, in that order: 3.8 µM, 30 µM, 12 µM and 0.3 µM.
Regarding `CS(=O)(=O)Cc1[nH]c2cc(S(C)(=O)=O)ccc2c1Sc1ccccc1Cl`, the IC50 in data set [4] was > 40 µM.
As for `CS(=O)(=O)c1ccc2c(Sc3ccc(F)cc3)c(C(N)=O)[nH]c2c1`, the IC50 in data set [1] is > 40 µM; in data set [3], > 40 µM; in data set [4], 1.21 µM.
For the compound `COC(=O)c1[nH]c2cc(S(C)(=O)=O)ccc2c1Sc1ccc(F)cc1F`, the IC50 came to 0.38 µM in data set [1], 17.2 µM in data set [3] and 0.38 µM in data set [4].
For `CS(=O)(=O)c1ccc2c(Sc3ccc(F)cc3F)c(C(N)=O)[nH]c2c1`, the IC50 in data set [1] is > 40 µM; in data set [3] it was > 40 µM; in data set [4], 2.24 µM.
Regarding `CS(=O)(=O)c1ccc2c(Sc3ccc(F)cc3)c(C#N)[nH]c2c1`, the IC50 is 2.3 µM in data set [1] and > 125 µM in data set [3].
In the case of `CS(=O)(=O)c1ccc2c(Sc3ccccc3Cl)c(C#N)[nH]c2c1`, the concentration for half-maximal inhibition (IC50) was 0.57 µM in data set [1], > 67 µM in data set [3] and 0.13 µM in data set [4]. Also, in data set [7], the AUC was 56 µM·h.
For `CNC(=O)c1[nH]c2cc(S(C)(=O)=O)ccc2c1Sc1ccc(F)cc1F`, the half-inhibitory concentration (IC50) in data set [4] is > 40 µM.
Turning to `CS(=O)(=O)c1ccc2c(Sc3ccc(F)cc3F)c(C#N)[nH]c2c1`, the half-maximal inhibitory concentration (IC50) in data set [1] was 1.27 µM; in data set [3], > 60 µM; in data set [4] it was 0.94 µM. Also, the AUC in data set [7] was found to be 316 µM·h. This compound also showed a half-life in data set [8] of 6.3 h.
For `Cc1[nH]c2cc(S(C)(=O)=O)ccc2c1Cc1ccc(F)cc1F`, the IC50 in data set [1] was 8.4 µM; in data set [2], > 40 µM; in data set [3], 98 µM; in data set [4], 0.26 µM. Moreover, the AUC in data set [7] was determined as 72 µM·h. The same compound had a half-life in data set [8] of 4.1 h.
For the compound `Cc1[nH]c2cc(S(C)(=O)=O)ccc2c1Cc1ccc(Cl)cc1`, the IC50 in data set [1] is 5.6 µM; in data set [2], > 40 µM; in data set [3] it was 71.1 µM; in data set [4], 0.26 µM.
Take `COc1ccc(Oc2c(C)[nH]c3cc(S(C)(=O)=O)ccc23)cc1`: the IC50 is 1.6 µM in data set [1], > 30 µM in data set [2], 6 µM in data set [3] and 0.2 µM in data set [4].
`COc1ccc(C(=O)c2c(C)[nH]c3cc(S(C)(=O)=O)ccc23)cc1`: the half-maximal inhibitory concentration (IC50) in data set [1] was 2.6 µM; in data set [2], > 40 µM; in data set [3], 3.5 µM.
Regarding `CC(=O)OCc1[nH]c2cc(S(C)(=O)=O)ccc2c1Sc1ccccc1Cl`, the IC50 in data set [4] was > 40 µM.
For `CS(=O)(=O)c1ccc2c(Sc3ccc(F)cc3)c(CO)[nH]c2c1`, the IC50 is 5.9 µM in data set [1], > 100 µM in data set [3] and 0.42 µM in data set [4].
Turning to `Cc1[nH]c2cc(S(C)(=O)=O)ccc2c1[S+]([O-])c1ccc(F)cc1` (centres undefined), the IC50 in data set [4] is > 40 µM.
For `COc1ccc(Oc2c(C)[nH]c3cccc(S(C)(=O)=O)c23)cc1`, the half-inhibitory concentration (IC50) in data set [1] was 1.6 µM; in data set [2], > 30 µM; in data set [3] it was 6 µM; in data set [4], 0.2 µM.
In the case of `Cc1[nH]c2cc(S(C)(=O)=O)ccc2c1Sc1ccc(F)cc1F`, the figures for the IC50 in data set [1] and in data set [3] were 0.77 µM and 18.2 µM, respectively. The exposure (AUC) in data set [7] was determined as 118 µM·h.
Take `CS(=O)(=O)c1ccc2c(Sc3ccc(F)cc3)c(C(=O)O)[nH]c2c1`: the IC50 in data set [4] was > 40 µM.
As to `Cc1[nH]c2cc(S(C)(=O)=O)ccc2c1C(=O)c1ccc(F)cc1`, the IC50 was 1.72 µM in data set [1], 100 µM in data set [2], 2.44 µM in data set [3] and 0.66 µM in data set [4].

By IC50 is commonly meant the concentration that inhibits the measured activity by half. Read a high IC50 as lower potency. As usually defined, the AUC is concentration integrated over time. The half-life is the time needed for the level to fall by half in the phase considered.
